From patent publication US20230212549A1, “COMPOUNDS COMPRISING A […] LIGAND AND USE THEREOF” (priority 2021, published 2023)
Numbered stars: 1 amine (or outer) side, 2 acyl side, 3 side chain; on linkers, the order of the positions; unused ones are H or OH. Bridge positions count the residues as written; N and C are the ends. Square brackets hold non-standard residues; d marks the D form. Peptide text beside a SMILES is read from it. * marks the point of attachment. ξ: configuration not given here. X1 = NCCNCC(CNCCN)C(=O)N1CCN(CC(=O)NCCCOCCOCCOCCCN*)CC1; Pyridine(3,5-bisCH2) = c1ncc(C[*:2])cc1C[*:1]; mXylylene = c1cc(C[*:1])cc(C[*:2])c1; PEG6 = NCCOCCOCCOCCOCCOCCOCCC(=O)O; Suc = O=C(CCC(=O)[*:2])[*:1]; Nle = CCCC[C@H](N)C(=O)O; X2 = NCCNCC(CNCCN)C(=O)*; ξC = NC(CS)C(=O)O

Tests used:
[1] = Radiochemical purity by HPLC of ^99mTc-labeled compounds; assay type: physicochemical; conditions: 99Tc-labeled compounds
Procedure: 100-500 MBq of ^99mTcO4 (in saline) were mixed with 11 μl of 0.5 M phosphate buffer pH 11.5-12.0 and 1.1 μl of 0.1 M trisodium citrate per 100 μl radionuclide solution. […] The mixture was incubated for 30 min at 25-50′° C. At the end of the incubation time, the mixture was neutralized with 3.0 μl 1 M HCl per 10 μl phosphate buffer and TWEEN-20 was added at a final concentration of 0.100.

Human recombinant FAP [2] = biological target: T1, Human recombinant FAP (Homo sapiens, UniProt Q12884); assay: Surface plasmon resonance (Biacore) assay; assay type: binding
[3] = biological target: T2, FAP-expressing human WI-38 fibroblasts (Homo sapiens, UniProt Q12884); assay: Competitive FACS binding assay
T2 construct: FAP-expressing human WI-38 fibroblasts (ECACC) were cultured in EMEM; host or cells: WI-38 human fibroblasts
Procedure: Cells were analyzed in an Attune NxT flow cytometer. […] […].
Cells were analyzed in an Attune NxT flow cytometer. […]

in vivo = conditions: swiss nude, mouse, iv
Human recombinant FAP [4] = biological target: T1, Human recombinant FAP; assay: FRET-based FAP protease activity assay; assay type: biochemical; set-up: purchased R&D systems 3715-SE; conditions: pIC50 Category (activity), Recombinant human FAP

T1 sequence (Q12884 whole entry): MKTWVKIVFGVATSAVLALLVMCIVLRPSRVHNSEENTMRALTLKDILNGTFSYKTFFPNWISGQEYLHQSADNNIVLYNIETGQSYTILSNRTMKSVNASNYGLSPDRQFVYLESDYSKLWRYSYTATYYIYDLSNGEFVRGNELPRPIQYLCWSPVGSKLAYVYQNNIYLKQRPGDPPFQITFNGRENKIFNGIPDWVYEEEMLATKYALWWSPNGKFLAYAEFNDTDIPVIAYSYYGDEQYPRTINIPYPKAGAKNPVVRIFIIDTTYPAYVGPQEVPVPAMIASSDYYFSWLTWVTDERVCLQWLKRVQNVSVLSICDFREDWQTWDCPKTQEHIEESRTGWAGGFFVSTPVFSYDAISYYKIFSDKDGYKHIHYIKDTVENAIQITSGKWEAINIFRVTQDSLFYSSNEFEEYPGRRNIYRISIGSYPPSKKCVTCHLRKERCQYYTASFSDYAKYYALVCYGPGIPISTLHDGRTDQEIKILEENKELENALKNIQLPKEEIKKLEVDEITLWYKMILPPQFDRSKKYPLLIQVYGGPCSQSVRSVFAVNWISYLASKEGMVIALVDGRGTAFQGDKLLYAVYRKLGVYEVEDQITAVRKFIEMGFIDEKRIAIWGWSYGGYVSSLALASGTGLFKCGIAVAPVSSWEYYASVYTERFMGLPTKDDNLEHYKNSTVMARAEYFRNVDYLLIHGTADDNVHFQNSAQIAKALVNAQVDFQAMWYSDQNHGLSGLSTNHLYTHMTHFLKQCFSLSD
T2 sequence (Q12884 whole entry): as above

Row | SMILES | HPLC Area % at end of synthesis [1] [%] | Kd (Human recombinant FAP [2]) [µM] | IC50 [3] [µM] | tissue uptake at 1 h (in vivo; blood pool surrogate (BPS)) [%ID/g] | tissue uptake at 3 h (in vivo; blood pool surrogate (BPS)) [%ID/g] | tissue uptake at 6 h (in vivo; blood pool surrogate (BPS)) [%ID/g] | tissue uptake at 1 h (in vivo; kidneys) [%ID/g] | tissue uptake at 3 h (in vivo; kidneys) [%ID/g] | tissue uptake at 6 h (in vivo; kidneys) [%ID/g] | tissue uptake at 1 h (in vivo; tumor) [%ID/g] | tissue uptake at 3 h (in vivo; tumor) [%ID/g] | tissue uptake at 6 h (in vivo; tumor) [%ID/g] | IC50 (Human recombinant FAP [4]) [µM] | HPLC Area % appr. 4 h post end of synthesis [1] [%] | HPLC Area % appr. 4 h post end of synthesis ([1]; (3 h)) [%]
1 | CCCC[C@H](NC(=O)CCOCCOCCOCCOCCOCCOCCNC(=O)C(CNCCN)CNCCN)C(=O)N[C@H]1CSCc2cncc(c2)CSCC(C(=O)O)NC(=O)[C@H](Cc2ccccc2)NC(=O)[C@H](CCC(=O)O)NC(=O)[C@H]([C@@H](C)O)NC(=O)[C@@H]2CCCN2C(=O)[C@@H]2CCCN2C1=O (stereo partly drawn) [3BP-4773, N4Ac-PEG6-Nle-[Cys(3Lut)-Pro-Pro-Thr-Glu-Phe-Cys]-OH] ({X2-PEG6}-[Nle]CPPTEF[ξC]-OH; linker 2-8 via Pyridine(3,5-bisCH2)) | 95.8 | 0.01 to 0.0794 | 0.01 to 0.0794 | 0.25 | 0.09 | 0.06 | 6.64 | 4.71 | 3.12 | 6.19 | 6.19 | 5.42 | 0.01 to 0.0794 | – | –
2 | CCCC[C@H](NC(=O)CCC(=O)NCCCOCCOCCOCCCNC(=O)CN1CCN(C(=O)C(CNCCN)CNCCN)CC1)C(=O)N[C@H]1CSCc2cccc(c2)CSC[C@@H](C(=O)O)NC(=O)[C@H](Cc2ccccc2)NC(=O)[C@H](CCC(=O)O)NC(=O)[C@H]([C@@H](C)O)NC(=O)[C@@H]2CCCN2C(=O)[C@@H]2CCCN2C1=O [3BP-4782, N4Ac-PPAc-Ttds-Nle-[Cys(3MeBn)-Pro-Pro-Thr-Glu-Phe-Cys]-OH] ({X1-Suc}-[Nle]CPPTEFC-OH; linker 2-8 via mXylylene) | 97.1 | – | 0.01 to 0.0794 | 0.69 | 0.47 | 0.36 | 7.28 | 5.78 | 4.24 | 6.2 | 6.77 | 7.17 | 0.01 to 0.0794 | 95.8 | –
3 | CCCC[C@H](NC(=O)CCC(=O)NCCCOCCOCCOCCCNC(=O)CN1CCN(C(=O)C(CNCCN)CNCCN)CC1)C(=O)N[C@H]1CSCc2cncc(c2)CSCC(C(=O)O)NC(=O)[C@H](Cc2ccccc2)NC(=O)[C@H](CCC(N)=O)NC(=O)[C@H]([C@@H](C)O)NC(=O)[C@@H]2CCCN2C(=O)[C@@H]2CCCN2C1=O (stereo partly drawn) [3BP-4774, N4Ac-PPAc-Ttds-Nle-[Cys(3Lut)-Pro-Pro-Thr-Gln-Phe-Cys]-OH] | 88.8 | – | 0.01 to 0.0794 | 0.08 | 0.06 | 0.03 | 1.87 | 0.85 | 0.48 | 6.14 | 3.7 | 1.74 | 0.01 to 0.0794 | 86.1 | –
4 | CCCC[C@H](NC(=O)CCOCCOCCOCCOCCOCCOCCNC(=O)C(CNCCN)CNCCN)C(=O)N[C@H]1CSCc2cncc(c2)CSCC(C(=O)O)NC(=O)[C@H](Cc2ccccc2)NC(=O)[C@H](CCC(N)=O)NC(=O)[C@H]([C@@H](C)O)NC(=O)[C@@H]2CCCN2C(=O)[C@@H]2CCCN2C1=O (stereo partly drawn) [3BP-4550, N4Ac-PEG6-Nle-[Cys(3Lut)-Pro-Pro-Thr-Gln-Phe-Cys]-OH] | 100 | 0.01 to 0.0794 | 0.1 to 0.794 | 0.06 | 0.03 | 0.04 | 0.92 | 0.62 | 0.38 | 6.14 | 4.91 | 2.91 | 0.01 to 0.0794 | – | 98.0
5 | CCCC[C@H](NC(=O)CCC(=O)NCCCOCCOCCOCCCNC(=O)C(CNCCN)CNCCN)C(=O)N[C@H]1CSCc2cncc(c2)CSCC(C(=O)O)NC(=O)[C@H](Cc2ccccc2)NC(=O)[C@H](CCC(N)=O)NC(=O)[C@H]([C@@H](C)O)NC(=O)[C@@H]2CCCN2C(=O)[C@@H]2CCCN2C1=O (stereo partly drawn) [3BP-4549, N4Ac-Ttds-Nle-[Cys(3Lut)-Pro-Pro-Thr-Gln-Phe-Cys]-OH] | 99.3 | 0.01 to 0.0794 | 0.01 to 0.0794 | 0.18 | 0.03 | 0.01 | 4.22 | 1.82 | 0.58 | 6.04 | 4.25 | 1.68 | < 0.01 | – | 97.6
